Source: ChEMBL document CHEMBL3217546, “The synthesis and receptor binding affinities of DDD-016, a novel, potential, atypical antipsychotic” (Medchemcomm, 2012)
Active and inactive are the calls of the source. No cut-off for these calls is given here.

Assays:
[1] = biological target: 5-hydroxytryptamine receptor 5A (Homo sapiens, UniProt P47898)
Description: Binding affinity to serotonin 5-HT5A receptor (unknown origin) by PDSP assay

[2] = biological target: 5-hydroxytryptamine receptor 1E (Homo sapiens, UniProt P28566)
Description: Binding affinity to serotonin 5-HT1E receptor (unknown origin) by PDSP assay

D(1B) dopamine receptor = D(1B) dopamine receptor (Homo sapiens, UniProt P21918)
[3] = biological target: Alpha-1B adrenergic receptor (Homo sapiens, UniProt P35368)
Description: Binding affinity to adrenergic alpha1B receptor (unknown origin) by PDSP assay

[4] = biological target: 5-hydroxytryptamine receptor 1B (Homo sapiens, UniProt P28222)
Description: Binding affinity to serotonin 5-HT1B receptor (unknown origin) by PDSP assay

[5] = biological target: 5-hydroxytryptamine receptor 3A (Homo sapiens, UniProt P46098)
Description: Binding affinity to serotonin 5-HT3 receptor (unknown origin) by PDSP assay

[6] = biological target: Muscarinic acetylcholine receptor M3 (Homo sapiens, UniProt P20309)
Description: Binding affinity to M3 receptor (unknown origin) by PDSP assay

[7] = biological target: T1, 5-hydroxytryptamine receptor 2A (Homo sapiens, UniProt P28223); assay: Agonist activity at 5-HT2A receptor (unknown origin) relative to serotonin; conditions: concentration not given here
[8] = biological target: T1, 5-hydroxytryptamine receptor 2A
Description: Binding affinity to serotonin 5-HT2A receptor (unknown origin) by PDSP assay

[9] = biological target: Alpha-2A adrenergic receptor (Homo sapiens, UniProt P08913)
Description: Binding affinity to adrenergic alpha2A receptor (unknown origin) by PDSP assay

[10] = biological target: Alpha-1D adrenergic receptor (Homo sapiens, UniProt P25100); assay: Binding affinity to adrenergic alpha1D receptor (unknown origin) by PDSP assay
D(2) dopamine receptor [11] = biological target: T2, D(2) dopamine receptor (Homo sapiens, UniProt P14416); assay: Agonist activity at dopamine D2 receptor (unknown origin) relative to serotonin; conditions: concentration not given here
[12] = biological target: 5-hydroxytryptamine receptor 6 (Homo sapiens, UniProt P50406)
Description: Binding affinity to serotonin 5-HT6 receptor (unknown origin) by PDSP assay

[13] = biological target: Alpha-1A adrenergic receptor (Homo sapiens, UniProt P35348)
Description: Binding affinity to adrenergic alpha1A receptor (unknown origin) by PDSP assay

[14] = biological target: T1, 5-hydroxytryptamine receptor 2A; assay: Antagonist activity at 5-HT2A receptor (unknown origin) relative to ketanserin; conditions: concentration not given here
D(1A) dopamine receptor = D(1A) dopamine receptor (Homo sapiens, UniProt P21728)
Description: Binding affinity to dopamine D1 receptor (unknown origin) by PDSP assay

D(3) dopamine receptor = D(3) dopamine receptor (Homo sapiens, UniProt P35462)
Description: Binding affinity to dopamine D3 receptor (unknown origin) by PDSP assay

Rattus norvegicus [15] = assay: Inhibition of pre-pulse in ip dosed rat; format: functional, organism-based
[16] = biological target: Alpha-2C adrenergic receptor (Homo sapiens, UniProt P18825)
Description: Binding affinity to adrenergic alpha2C receptor (unknown origin) by PDSP assay

[17] = biological target: 5-hydroxytryptamine receptor 4 (Homo sapiens, UniProt Q13639); assay: Binding affinity to serotonin 5-HT4 receptor (unknown origin) by PDSP assay
Rattus norvegicus [18] = assay: Toxicity in po dosed rat assessed as change in renal parameter after 2 weeks relative to control; format: organism-based; conditions: in vivo, 336 h
Rattus norvegicus [19] = assay: Toxicity in po dosed rat assessed as abnormal metabolic changes after 2 weeks relative to control; format: organism-based; conditions: in vivo, 336 h
[20] = biological target: 5-hydroxytryptamine receptor 1A (Homo sapiens, UniProt P08908)
Description: Binding affinity to serotonin 5-HT1A receptor (unknown origin) by PDSP assay

[21] = biological target: 5-hydroxytryptamine receptor 2B (Homo sapiens, UniProt P41595); assay: Binding affinity to serotonin 5-HT2B receptor (unknown origin) by PDSP assay
[22] = biological target: Muscarinic acetylcholine receptor M2 (Homo sapiens, UniProt P08172)
Description: Binding affinity to M2 receptor (unknown origin) by PDSP assay

[23] = biological target: Muscarinic acetylcholine receptor M5 (Homo sapiens, UniProt P08912)
Description: Binding affinity to M5 receptor (unknown origin) by PDSP assay

D(2) dopamine receptor [24] = biological target: T2, D(2) dopamine receptor; assay: Antagonist activity at dopamine D2 receptor (unknown origin) relative to ketanserin; conditions: concentration not given here
[25] = biological target: 5-hydroxytryptamine receptor 1D (Homo sapiens, UniProt P28221)
Description: Binding affinity to serotonin 5-HT1D receptor (unknown origin) by PDSP assay

Histamine H2 receptor = Histamine H2 receptor (Homo sapiens, UniProt P25021); assay: Binding affinity to H2 histamine receptor (unknown origin) by PDSP assay
[26] = biological target: 5-hydroxytryptamine receptor 2C (Homo sapiens, UniProt P28335)
Description: Binding affinity to serotonin 5-HT2C receptor (unknown origin) by PDSP assay

Rattus norvegicus [27] = assay: Toxicity in po dosed rat assessed as elevation in liver enzyme level after 2 weeks relative to control; format: organism-based; conditions: in vivo, 336 h
[28] = biological target: Muscarinic acetylcholine receptor M1 (Homo sapiens, UniProt P11229)
Description: Binding affinity to M1 receptor (unknown origin) by PDSP assay

D(2) dopamine receptor [29] = biological target: T2, D(2) dopamine receptor
Description: Binding affinity to dopamine D2 receptor (unknown origin) by PDSP assay

[30] = biological target: 5-hydroxytryptamine receptor 7 (Homo sapiens, UniProt P34969)
Description: Binding affinity to serotonin 5-HT7 receptor (unknown origin) by PDSP assay

[31] = biological target: Muscarinic acetylcholine receptor M4 (Homo sapiens, UniProt P08173)
Description: Binding affinity to M4 receptor (unknown origin) by PDSP assay

Rattus norvegicus [32] = assay: Toxicity in po dosed rat assessed as weight gain after 2 weeks relative to control; format: organism-based; conditions: in vivo, 336 h

T2 sequence (P14416 whole entry): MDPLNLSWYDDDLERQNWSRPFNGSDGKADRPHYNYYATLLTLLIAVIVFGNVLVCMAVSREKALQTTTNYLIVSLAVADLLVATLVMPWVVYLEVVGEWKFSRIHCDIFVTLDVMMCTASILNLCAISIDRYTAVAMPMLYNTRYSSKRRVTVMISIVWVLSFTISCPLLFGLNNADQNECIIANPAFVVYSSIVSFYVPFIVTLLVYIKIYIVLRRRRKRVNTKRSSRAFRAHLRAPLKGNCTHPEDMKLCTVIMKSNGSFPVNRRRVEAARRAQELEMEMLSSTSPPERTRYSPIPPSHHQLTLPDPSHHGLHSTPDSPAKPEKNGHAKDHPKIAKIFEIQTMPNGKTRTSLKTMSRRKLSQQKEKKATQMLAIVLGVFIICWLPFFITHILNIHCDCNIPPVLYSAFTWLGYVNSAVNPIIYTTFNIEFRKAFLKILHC
Chain of 5-hydroxytryptamine receptor 5A (P47898 whole entry): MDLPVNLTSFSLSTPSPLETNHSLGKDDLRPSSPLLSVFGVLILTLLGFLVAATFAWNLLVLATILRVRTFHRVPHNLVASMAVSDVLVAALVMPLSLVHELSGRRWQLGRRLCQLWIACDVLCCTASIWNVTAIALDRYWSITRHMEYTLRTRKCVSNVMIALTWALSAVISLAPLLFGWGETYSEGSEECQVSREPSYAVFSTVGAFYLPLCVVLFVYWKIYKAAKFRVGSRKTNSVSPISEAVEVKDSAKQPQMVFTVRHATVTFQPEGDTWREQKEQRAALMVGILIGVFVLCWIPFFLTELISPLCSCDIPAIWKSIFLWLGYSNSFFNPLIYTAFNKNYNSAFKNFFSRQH
T1 sequence (P28223 whole entry): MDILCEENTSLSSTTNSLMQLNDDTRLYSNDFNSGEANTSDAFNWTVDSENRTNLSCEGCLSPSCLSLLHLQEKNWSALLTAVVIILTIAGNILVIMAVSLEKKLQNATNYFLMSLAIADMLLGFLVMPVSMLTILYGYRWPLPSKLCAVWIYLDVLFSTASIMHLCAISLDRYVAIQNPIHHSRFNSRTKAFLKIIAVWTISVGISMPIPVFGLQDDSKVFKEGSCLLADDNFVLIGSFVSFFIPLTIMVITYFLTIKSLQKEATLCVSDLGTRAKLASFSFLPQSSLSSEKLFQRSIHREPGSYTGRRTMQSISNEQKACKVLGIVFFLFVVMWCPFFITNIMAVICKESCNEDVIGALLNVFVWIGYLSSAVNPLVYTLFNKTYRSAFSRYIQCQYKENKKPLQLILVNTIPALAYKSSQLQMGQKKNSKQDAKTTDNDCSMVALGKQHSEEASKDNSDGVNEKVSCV
Chain of Alpha-1B adrenergic receptor (P35368 whole entry): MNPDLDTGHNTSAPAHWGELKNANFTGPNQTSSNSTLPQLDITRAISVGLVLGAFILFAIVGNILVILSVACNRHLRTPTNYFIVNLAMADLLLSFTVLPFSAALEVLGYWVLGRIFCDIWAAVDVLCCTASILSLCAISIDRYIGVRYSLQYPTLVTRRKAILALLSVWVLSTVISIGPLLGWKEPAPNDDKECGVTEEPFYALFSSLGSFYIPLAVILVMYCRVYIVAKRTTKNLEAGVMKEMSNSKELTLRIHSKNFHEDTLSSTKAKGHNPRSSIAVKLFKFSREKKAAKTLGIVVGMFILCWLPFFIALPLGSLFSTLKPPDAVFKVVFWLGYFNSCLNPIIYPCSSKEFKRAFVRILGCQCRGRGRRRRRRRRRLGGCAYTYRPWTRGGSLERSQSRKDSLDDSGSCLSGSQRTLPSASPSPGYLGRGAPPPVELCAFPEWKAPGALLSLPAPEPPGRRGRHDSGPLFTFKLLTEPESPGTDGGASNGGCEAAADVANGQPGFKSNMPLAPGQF
Chain of 5-hydroxytryptamine receptor 1E (P28566 whole entry): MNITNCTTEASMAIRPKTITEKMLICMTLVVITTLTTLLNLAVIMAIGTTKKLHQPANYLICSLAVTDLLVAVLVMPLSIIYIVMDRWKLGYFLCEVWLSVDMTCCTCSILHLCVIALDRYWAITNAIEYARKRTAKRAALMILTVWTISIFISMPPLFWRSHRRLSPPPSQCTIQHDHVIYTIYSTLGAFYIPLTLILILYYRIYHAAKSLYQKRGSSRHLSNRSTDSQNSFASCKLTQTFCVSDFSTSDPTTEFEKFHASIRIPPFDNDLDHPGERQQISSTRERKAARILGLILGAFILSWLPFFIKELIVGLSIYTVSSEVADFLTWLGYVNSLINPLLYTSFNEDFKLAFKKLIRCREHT
Chain of D(1B) dopamine receptor (P21918 whole entry): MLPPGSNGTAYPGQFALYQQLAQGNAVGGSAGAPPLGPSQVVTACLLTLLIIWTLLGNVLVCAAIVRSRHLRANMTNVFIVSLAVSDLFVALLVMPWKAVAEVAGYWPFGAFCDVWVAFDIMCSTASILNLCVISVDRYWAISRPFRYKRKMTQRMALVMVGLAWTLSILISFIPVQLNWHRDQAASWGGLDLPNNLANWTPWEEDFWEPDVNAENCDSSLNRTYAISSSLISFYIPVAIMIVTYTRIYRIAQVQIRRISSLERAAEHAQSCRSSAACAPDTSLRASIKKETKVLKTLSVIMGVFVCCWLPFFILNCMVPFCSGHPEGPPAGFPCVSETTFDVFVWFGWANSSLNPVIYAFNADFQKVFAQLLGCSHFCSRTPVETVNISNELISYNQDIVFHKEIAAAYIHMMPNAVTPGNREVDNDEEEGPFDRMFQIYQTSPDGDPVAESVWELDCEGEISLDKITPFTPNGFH
Chain of 5-hydroxytryptamine receptor 3A (P46098 whole entry): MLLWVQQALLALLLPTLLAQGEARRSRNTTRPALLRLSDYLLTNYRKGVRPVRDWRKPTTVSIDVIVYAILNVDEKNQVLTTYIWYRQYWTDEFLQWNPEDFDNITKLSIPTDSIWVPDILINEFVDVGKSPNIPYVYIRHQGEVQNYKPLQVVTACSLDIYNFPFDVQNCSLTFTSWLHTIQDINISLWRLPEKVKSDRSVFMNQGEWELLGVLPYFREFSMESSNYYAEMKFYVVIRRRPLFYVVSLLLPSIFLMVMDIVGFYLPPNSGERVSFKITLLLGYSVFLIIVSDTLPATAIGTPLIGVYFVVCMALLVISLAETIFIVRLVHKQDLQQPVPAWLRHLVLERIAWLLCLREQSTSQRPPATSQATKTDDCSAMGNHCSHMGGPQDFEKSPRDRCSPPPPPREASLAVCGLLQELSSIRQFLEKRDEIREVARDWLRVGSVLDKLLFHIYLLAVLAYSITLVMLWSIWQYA
Chain of 5-hydroxytryptamine receptor 1B (P28222 whole entry): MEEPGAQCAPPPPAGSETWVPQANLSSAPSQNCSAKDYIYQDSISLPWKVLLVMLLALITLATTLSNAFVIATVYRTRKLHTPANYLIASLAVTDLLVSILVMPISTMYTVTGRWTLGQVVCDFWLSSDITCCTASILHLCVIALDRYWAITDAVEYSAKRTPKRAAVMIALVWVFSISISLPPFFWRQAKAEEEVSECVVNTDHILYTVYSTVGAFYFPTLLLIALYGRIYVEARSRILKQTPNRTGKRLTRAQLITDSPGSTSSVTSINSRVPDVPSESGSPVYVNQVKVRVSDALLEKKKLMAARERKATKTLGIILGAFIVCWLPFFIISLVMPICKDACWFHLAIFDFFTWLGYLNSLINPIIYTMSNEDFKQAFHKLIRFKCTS
Chain of Alpha-1D adrenergic receptor (P25100 whole entry): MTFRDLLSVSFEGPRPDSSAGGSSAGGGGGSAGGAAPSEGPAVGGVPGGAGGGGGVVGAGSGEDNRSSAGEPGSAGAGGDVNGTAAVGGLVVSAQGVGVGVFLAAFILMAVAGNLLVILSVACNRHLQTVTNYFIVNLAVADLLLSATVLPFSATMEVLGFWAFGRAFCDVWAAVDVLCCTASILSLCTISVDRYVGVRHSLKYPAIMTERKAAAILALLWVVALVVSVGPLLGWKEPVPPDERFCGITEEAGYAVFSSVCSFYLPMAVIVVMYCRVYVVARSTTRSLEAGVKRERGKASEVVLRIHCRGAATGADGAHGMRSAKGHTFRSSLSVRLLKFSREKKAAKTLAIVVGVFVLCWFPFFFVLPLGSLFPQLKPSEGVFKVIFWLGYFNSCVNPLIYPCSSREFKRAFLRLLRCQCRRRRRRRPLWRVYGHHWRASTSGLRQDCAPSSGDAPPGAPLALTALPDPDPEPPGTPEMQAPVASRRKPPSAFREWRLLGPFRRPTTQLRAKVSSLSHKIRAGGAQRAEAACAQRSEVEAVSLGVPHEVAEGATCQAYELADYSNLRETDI
Chain of Alpha-2A adrenergic receptor (P08913 whole entry): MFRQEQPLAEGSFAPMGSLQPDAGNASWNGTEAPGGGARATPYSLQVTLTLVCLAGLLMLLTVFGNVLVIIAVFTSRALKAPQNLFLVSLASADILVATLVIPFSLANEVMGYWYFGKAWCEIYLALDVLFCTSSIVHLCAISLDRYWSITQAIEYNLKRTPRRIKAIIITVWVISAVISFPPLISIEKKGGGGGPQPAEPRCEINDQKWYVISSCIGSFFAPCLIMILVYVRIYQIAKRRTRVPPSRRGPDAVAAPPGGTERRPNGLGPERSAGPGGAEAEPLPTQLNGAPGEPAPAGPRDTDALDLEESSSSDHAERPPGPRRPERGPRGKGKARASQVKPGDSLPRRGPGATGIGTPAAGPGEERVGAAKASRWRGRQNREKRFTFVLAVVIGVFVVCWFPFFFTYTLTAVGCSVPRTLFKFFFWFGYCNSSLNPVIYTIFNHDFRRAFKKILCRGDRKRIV
Chain of Histamine H2 receptor (P25021 whole entry): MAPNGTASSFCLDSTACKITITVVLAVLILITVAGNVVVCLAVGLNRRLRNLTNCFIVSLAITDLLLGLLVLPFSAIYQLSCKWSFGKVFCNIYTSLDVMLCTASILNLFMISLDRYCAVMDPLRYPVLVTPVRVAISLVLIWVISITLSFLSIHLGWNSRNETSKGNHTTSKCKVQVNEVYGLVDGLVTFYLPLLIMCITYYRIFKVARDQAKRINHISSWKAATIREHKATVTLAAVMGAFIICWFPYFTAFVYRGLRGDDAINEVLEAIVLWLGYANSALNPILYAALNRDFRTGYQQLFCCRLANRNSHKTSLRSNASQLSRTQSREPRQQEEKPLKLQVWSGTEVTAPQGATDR

With `OCCOCCN1CCN(C2=Nc3ccccc3Sc3ccccc32)CC1` [QUETIAPINE] the Ki [1] was > 1000 nM, the Ki [2] was > 1000 nM and the Ki (D(1B) dopamine receptor) was > 1000 nM. For the same compound, the Ki [3] was 100 nM and the Ki [4] was > 1000 nM.
In the case of `Cc1cc2c(s1)Nc1ccccc1N=C2N1CCN(C)CC1` [OLANZAPINE], the Ki [1] is reported as > 1000 nM, the Ki [5] is reported as 1000 nM and the Ki (D(1B) dopamine receptor) is reported as 100 nM.
For `CN1CCN(C2=Nc3cc(Cl)ccc3Nc3ccccc32)CC1` [CLOZAPINE], the Ki [1] was > 1000 nM.
For `CN1CCC2C(C1)c1cccc3c1N2c1ccccc1CS3` (stereo not drawn), the Ki [6] was > 1000 nM, the inhibition [7] was 4% and the Ki [8] was 2 nM. The Ki [9] was 63.1 nM, the Ki [10] was 794 nM and the inhibition (D(2) dopamine receptor [11]) was 0%. For the same compound, the Ki [2] was 2510 nM, the Ki [12] was 15.8 nM and the Ki [13] was 501 nM. For the same compound, the inhibition [14] was 101%, the Ki (D(1A) dopamine receptor) was 25.1 nM and the Ki (D(3) dopamine receptor) was 31.6 nM. For the same compound, the inhibition (Rattus norvegicus [15]) was “Active”, the Ki [16] was 31.6 nM and the Ki [17] was > 1000 nM. The Activity (Rattus norvegicus [18]) was “Non-toxic”, the Ki [5] was 631 nM and the Activity (Rattus norvegicus [19]) was “Non-toxic”. The Ki [20] was 39.8 nM, the Ki [21] was 5.01 nM and the Ki [22] was > 1000 nM. The Ki [23] was 794 nM, the inhibition (D(2) dopamine receptor [24]) was 95% and the Ki [25] was 63.1 nM. For the same compound, the Ki (Histamine H2 receptor) was 79.4 nM, the Ki [26] was 7.94 nM and the Ki [3] was > 1000 nM. The Activity (Rattus norvegicus [27]) was “Non-toxic”, the Ki [4] was 316 nM and the Ki [28] was > 1000 nM. For the same compound, the Ki (D(2) dopamine receptor [29]) was 126 nM, the Ki [30] was 79.4 nM and the Ki [31] was > 1000 nM. For the same compound, the Activity (Rattus norvegicus [32]) was “Non-toxic”.
